From patent US12459951B2, “Compounds that interact with RAS superfamily proteins for treatment of cancers, inflammatory diseases, rasopathies, and fibrotic disease” (SHY Therapeutics, LLC, priority 2022, dated 2025)
Read-outs that look alike come from different tables or passages of the source.

Assays:
[1] = system: Smad2/Smad3 phosphorylation; assay: Phospho-Smad2/3 Inhibition Assay (western blot), Panc-1; assay type: cell-based, human; settings: at 10 μM, Panc-1 pancreatic cancer cell line; starred symbols = activation
Method in brief: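 Panc-1 cells (KRas G12D), starved overnight in 0.5% FBS, treated 3 h at 37° C with compound at 10 μM final (0.3% DMSO) or serial dilutions for IC50, then stimulated with 10 ng/ml TGF-b1 for 1 h. Phospho-Smad2 (Ser465/467) and phospho-Smad3 (Ser423/425) detected by western blot.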

[2] = system: MiaPaca-2 (expressing KRAS G12C mutant); assay: Proliferation Assay (Cell Viability Assay); assay type: cell-based; settings: Homo sapiens, MIA PaCa-2
Method in brief: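 MiaPaca-2 cells (KRAS G12C) were grown in DMEM-high glucose with 10% FBS, seeded at 2000–5000 cells/well and cultured overnight. Compounds were added at 10 μM final, or as serial dilutions for IC50, in 0.3% DMSO/10% FBS for 2–4 days at 37 °C, 5% CO2. Viability was measured with CellTiter 96 Aqueous One and % inhibition calculated.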

[3] = read-out: Proliferation in MiaPaca-2: IC50
[4] = Proliferation assay, MiaPaca-2, read-out: MiaPaca-2 IC50 (nM) Pancreatic

Compound | % inh of Smad2/3 phosphorylation in Panc-1 [1] | IC50 [2, 3] [nM] | IC50 [2, 4] [nM] | IC50 ([2]; MiaPaca2, pancreatic, KRas G12C, read-out: Proliferation assay IC50) [nM]
Cc1c(-c2ccn(C(C)C)n2)cn2nc(-c3nccn3C)nc(Nc3ncccn3)c12 [Compound 54, 6-(1-Isopropyl-1H-pyrazol-3-yl)-5-methyl-2-(1-methyl-1H-imidazol-2-yl)-N-(pyrimidin-2-yl)pyrrolo[2,1-f][1,2,4]triazin-4-amine] | A (A = 1-25% inhibition) | < 150 |  | 
COCCO[C@H]1C[C@H](Nc2nc(-c3nccn3C)nn3cc(-c4cccc(OC)c4F)c(-c4ccccc4)c23)C1 [Compound 44, 6-(2-Fluoro-3-methoxyphenyl)-N-((1r,3r)-3-(2-methoxyethoxy)cyclobutyl)-2-(1-methyl-1H-imidazol-2-yl)-5-phenylpyrrolo[2,1-f][1,2,4]triazin-4-amine] | D (D = 76-100% inhibition) | > 1000 |  | 
COc1cc(Nc2nc(-c3nccn3C)nn3cc(-c4ccn(C)n4)c(C)c23)n[nH]1 [Compound 252, N-(5-Methoxy-1H-pyrazol-3-yl)-5-methyl-2-(1-methyl-1H-imidazol-2-yl)-6-(1-methyl-1H-pyrazol-3-yl)pyrrolo[2,1-f][1,2,4]triazin-4-amine] | B* (B* = 26-45% activation) | < 150 | 10 to 50 | 
COc1cccc(-c2cn3nc(-c4nccn4C)nc(N[C@H]4C[C@H](OC)C4)c3c2-c2ccccc2)c1Cl [Compound 32, 6-(2-Chloro-3-methoxyphenyl)-N-((1r,3r)-3-methoxycyclobutyl)-2-(1-methyl-1H-imidazol-2-yl)-5-phenylpyrrolo[2,1-f][1,2,4]triazin-4-amine] | D (D = 76-100% inhibition) | 150 to 500 |  | 
COc1ccc(Nc2nc(-c3nccn3C)nn3cc(-c4ccn(C(C)C)n4)c(C)c23)cn1 [Compound 71, 6-(1-Isopropyl-1H-pyrazol-3-yl)-N-(6-methoxypyridin-3-yl)-5-methyl-2-(1-methyl-1H-imidazol-2-yl)pyrrolo[2,1-f][1,2,4]triazin-4-amine] | 0 (0 = 0% inhibition) | > 1000 |  | 
Cc1c(-c2ccn(C)n2)cn2nc(-c3nccn3C)nc(Nc3cc(-n4ccnc4C)ccn3)c12 [Compound 246, 5-Methyl-N-(4-(2-methyl-1H-imidazol-1-yl)pyridin-2-yl)-2-(1-methyl-1H-imidazol-2-yl)-6-(1-methyl-1H-pyrazol-3-yl)pyrrolo[2,1-f][1,2,4]triazin-4-amine] | C* (C* = 46-75% activation) | 150 to 500 |  | 
Cc1c(-c2ccn(C)n2)cn2nc(-c3nccn3C)nc(Nc3cc[nH]n3)c12 [Compound 256, 5-Methyl-2-(1-methyl-1H-imidazol-2-yl)-6-(1-methyl-1H-pyrazol-3-yl)-N-(1H-pyrazol-3-yl)pyrrolo[2,1-f][1,2,4]triazin-4-amine] | D* (D* = 76-100% activation) | > 1000 |  | 
COc1ccnc(Nc2nc(-c3nccn3C)nn3cc(-c4ccn(C(C)C)n4)c(C)c23)c1 [Compound 58, 6-(1-Isopropyl-1H-pyrazol-3-yl)-N-(4-methoxypyridin-2-yl)-5-methyl-2-(1-methyl-1H-imidazol-2-yl)pyrrolo[2,1-f][1,2,4]triazin-4-amine] | C (C = 46-75% inhibition) | < 150 | 1 to 10 | < 150
COc1cccc(-c2cn3nc(-c4nccn4C)nc(N[C@H]4C[C@H](OC)C4)c3c2-c2ccn(C)n2)c1F [Compound 47, 6-(2-Fluoro-3-methoxyphenyl)-N-((1r,3r)-3-methoxycyclobutyl)-2-(1-methyl-1H-imidazol-2-yl)-5-(1-methyl-1H-pyrazol-3-yl)pyrrolo[2,1-f][1,2,4]triazin-4-amine] | D (D = 76-100% inhibition) | > 1000 |  | 
COc1cccc(Nc2nc(-c3nccn3C)nn3cc(-c4ccn(C(C)C)n4)c(-c4ccccc4)c23)n1 [Compound 23, 6-(1-Isopropyl-1H-pyrazol-3-yl)-N-(6-methoxypyridin-2-yl)-2-(1-methyl-1H-imidazol-2-yl)-5-phenylpyrrolo[2,1-f][1,2,4]triazin-4-amine] | 0 (0 = 0% inhibition) | > 1000 |  | 
COc1cccc(-c2cn3nc(-c4nccn4C)nc(N[C@H]4C[C@H](OC)C4)c3c2-c2ccccn2)c1F [Compound 45, 6-(2-Fluoro-3-methoxyphenyl)-N-((1r,3r)-3-methoxycyclobutyl)-2-(1-methyl-1H-imidazol-2-yl)-5-(pyridin-2-yl)pyrrolo[2,1-f][1,2,4]triazin-4-amine] | 0 (0 = 0% inhibition) | > 1000 |  | 
COc1cc(Nc2nc(-c3nccn3C)nn3cc(-c4ccn(C)n4)c(C)c23)ncn1 [Compound 63, N-(6-Methoxypyrimidin-4-yl)-5-methyl-2-(1-methyl-1H-imidazol-2-yl)-6-(1-methyl-1H-pyrazol-3-yl)pyrrolo[2,1-f][1,2,4]triazin-4-amine] | D* (D* = 76-100% activation) | < 150 |  | 
Cc1c(-c2ccn(C(C)C)n2)cn2nc(-c3nccn3C)nc(Nc3ccn(C(C)C)n3)c12 [Compound 72, N,6-bis(1-Isopropyl-1H-pyrazol-3-yl)-5-methyl-2-(1-methyl-1H-imidazol-2-yl)pyrrolo[2,1-f][1,2,4]triazin-4-amine] | 0 (0 = 0% inhibition) | > 1000 |  | 
CO[C@H]1C[C@H](Nc2nc(-c3nccn3C)nn3cc(-c4ccn(C)n4)c(C4CC4)c23)C1 [Compound 275, 5-Cyclopropyl-N-((1r,3r)-3-methoxycyclobutyl)-2-(1-methyl-1H-imidazol-2-yl)-6-(1-methyl-1H-pyrazol-3-yl)pyrrolo[2,1-f][1,2,4]triazin-4-amine] | B (B = 26-45% inhibition) | > 1000 |  | 
Cc1c(-c2ccn(C(C)C)n2)cn2nc(-c3nccn3C)nc(Nc3nnc(C4CC4)o3)c12 [Compound 67, 5-Cyclopropyl-N-(6-(1-isopropyl-1H-pyrazol-3-yl)-5-methyl-2-(1-methyl-1H-imidazol-2-yl)pyrrolo[2,1-f][1,2,4]triazin-4-yl)-1,3,4-oxadiazol-2-amine] | 0 (0 = 0% inhibition) | > 1000 |  | 
COCCNc1nc(-c2nccn2C)nn2cc(-c3ccn(C(C)C)n3)c(C(C)C)c12 [Compound 35, 5-Isopropyl-6-(1-isopropyl-1H-pyrazol-3-yl)-N-(2-methoxyethyl)-2-(1-methyl-1H-imidazol-2-yl)pyrrolo[2,1-f][1,2,4]triazin-4-amine] | A (A = 1-25% inhibition) | > 1000 |  | 
